Results: patent US12344584B2, “KCNQ potentiators” (Eli Lilly and Company, priority 2019, dated 2025)

Experiment: Unbound exposure in blood (dry blood spots, LC/MSMS, fraction unbound by dialysis) in threshold tracking study
Format: in vivo
Conditions: rat
Experimental: In threshold tracking assay to measure the excitability properties of peripheral axons studies in rat, compound is administered by IP at 3, 10 or 30 mg/kg using 1% hydroxyethylcellulose: 0.25% polysorbate 80:0.05% antifoam:purified water (HEC) formulation. Dry blood spots (DBS) are collected around 10, 20, 30 and terminal 40 min post-dose. DBS samples are dried at RT for around 2 h. Brain samples are obtained at terminal time point and frozen until analysis. DBS samples are shipped and stored at RT.
A 1-mg/mL stock solution of Example 1 is prepared and is serially diluted into pooled rat blood to prepare standards ranging from 1 to 10000 ng/mL. Blood wis spiked to blank DBS cards to make the standards. One 3 mm punch of the DBS standards or samples are added to 96 well plate and 180 μL of the internal standard (IS) in 1:1 ACN:MeOH is added. Shake for 45 min, dilute the extraction solution two fold with water, and analyze by LC/MSMS for drug concentration analysis.
Samples and standards are analyzed with a Sciex API 4000 Triple Quadrupole Mass Spectrometer (Sciex, Division of MDS Inc., Toronto, Canada) coupled to a Shimadzu HPLC System (LC-IOAD, Shimadzu Corporation) and a Gilson 215 Autosampler. […] Quantitation is performed using multiple reaction monitoring (MRM) at the following transitions: Example 1 (m/z 350.2 to m/z 233.0) and an analog internal standard (m/z 263.1 to m/z 148.1). […]
Drug binding to rat plasma proteins and brain homogenates is determined using in vitro dialysis method after spiking drug into these matrixes and incubated over 4.5 h at 37° C., while undergoing orbital shaking. […] Parent is quantitated by LC-MSMS at both 0 and […] time points. Fraction unbound is calculated by dividing the concentration of the buffer side by the concentration of the protein side. Percent recovery is also calculated by dividing the sum of the buffer and protein chambers by the time 0 concentration after 4.5 h. […]

CC(C)(C)[C@H](O)CNC(=O)NCc1ccnc(OCC(F)(F)F)c1 [Example 1, 1-[(2S)-2-hydroxy-3,3-dimethyl-butyl]-3-[[2-(2,2,2-trifluoroethoxy)-4-pyridyl]methyl]urea]
Unbound Exposure in Blood (±SEM) (3 mg/kg (IP)): 145 (±90) nM
Unbound Exposure in Blood (±SEM) (10 mg/kg (IP)): 193 (±50) nM
Unbound Exposure in Blood (±SEM) (30 mg/kg (IP)): 352 (±245) nM
